Measurements from patent US8846698B2, “Pyrrolo[2,3-d]pyrimidine tropomysin-related kinase inhibitors” (Pfizer Limited, priority 2011, dated 2014).

How the values were obtained:
TRKA [1] = target: T1, TRKA (Homo sapiens (Human), UniProt P04629); assay: Isolated TRK enzyme assay (HTRF KinEASE-TK), TRKA; assay type: biochemical; conditions: isolated TRKA enzyme; read-out: TrkA enzyme potency
Target sequence in this assay (P04629 441-796): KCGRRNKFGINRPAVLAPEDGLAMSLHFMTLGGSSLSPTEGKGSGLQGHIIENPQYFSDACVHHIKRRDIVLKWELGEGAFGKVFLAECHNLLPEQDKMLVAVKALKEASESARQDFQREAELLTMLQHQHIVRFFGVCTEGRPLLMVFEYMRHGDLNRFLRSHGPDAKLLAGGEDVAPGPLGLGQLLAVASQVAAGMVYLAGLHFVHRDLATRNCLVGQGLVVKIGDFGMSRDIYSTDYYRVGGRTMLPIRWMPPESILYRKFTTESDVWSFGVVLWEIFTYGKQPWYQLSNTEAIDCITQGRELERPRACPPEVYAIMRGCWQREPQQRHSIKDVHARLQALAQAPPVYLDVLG

TRKB [2] = target: T2, TRKB (Homo sapiens (Human), UniProt Q16620); assay: biochemical; conditions: isolated TRKB enzyme; read-out: TrkB enzyme potency
T2 sequence (Q16620 32-822 limits assumed): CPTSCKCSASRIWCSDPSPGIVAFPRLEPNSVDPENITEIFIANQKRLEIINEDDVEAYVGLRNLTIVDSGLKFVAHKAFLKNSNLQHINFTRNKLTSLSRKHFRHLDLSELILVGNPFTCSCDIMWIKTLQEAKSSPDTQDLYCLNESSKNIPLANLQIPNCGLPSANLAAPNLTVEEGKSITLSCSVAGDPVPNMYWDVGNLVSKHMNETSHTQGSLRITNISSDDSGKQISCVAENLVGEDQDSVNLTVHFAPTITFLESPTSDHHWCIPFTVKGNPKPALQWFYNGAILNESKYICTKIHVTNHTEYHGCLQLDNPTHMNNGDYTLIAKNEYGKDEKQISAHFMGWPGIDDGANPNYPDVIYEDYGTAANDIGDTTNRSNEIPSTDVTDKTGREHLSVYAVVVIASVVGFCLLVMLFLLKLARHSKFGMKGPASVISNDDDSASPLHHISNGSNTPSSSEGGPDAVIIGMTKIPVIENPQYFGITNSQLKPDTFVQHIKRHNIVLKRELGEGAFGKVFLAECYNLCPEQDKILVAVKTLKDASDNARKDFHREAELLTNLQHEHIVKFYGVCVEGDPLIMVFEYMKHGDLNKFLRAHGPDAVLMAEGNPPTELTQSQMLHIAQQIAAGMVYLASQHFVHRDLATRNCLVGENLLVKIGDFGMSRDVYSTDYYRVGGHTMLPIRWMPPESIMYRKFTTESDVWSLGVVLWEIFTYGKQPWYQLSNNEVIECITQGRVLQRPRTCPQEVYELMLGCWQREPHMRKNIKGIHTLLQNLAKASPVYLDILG

TRKA [3] = target: T1, TRKA; assay: Cell based DiscoveRx PathHunter antagonist assay, TRKA cell line; conditions: read-out: TrkA cell potency
Procedure: (§1) After the Detection Reagent addition, plates are covered and incubated at room temperature for 60 minutes. […] Test compound data are expressed as percentage inhibition defined by HPE and ZPE values for each plate. Percentage inhibition in the presence of test compound is plotted against compound concentration on a log scale to determine an IC50 from the resultant sigmoid curve. Cell Based Assays were carried out using Cell lines from DiscoveRx utilising their PathHunter technology and reagents in an antagonist assay:
(§2) The assays are based upon DiscoveRx's proprietary Enzyme Fragment Complementation (EFC) technology. In the case of the TRK cell lines, the enzyme acceptor (EA) protein is fused to a SH2 protein and the TRK receptor of interest has been tagged with a Prolink tag.
(§3) Upon neurotrophin binding, the TRK receptor becomes phosphorylated, and the tagged SH2 protein binds.
(§4) This means that the IC50 is a good measure of affinity and should be unaffected by concentration neurotrophin stimulant.
(§5) Cryopreserved PathHunter cells are used from either in-house produced batches or bulk batches bought directly from DiscoveRx. Cryopreserved cells are resuscitated, spun 1000 rpm for 4 min to remove freezing media, and resuspended in MEM+0.5% horse serum (both Invitrogen) to 5e^5 cells/ml. The cells are then plated using a Multidrop into Greiner white tissue culture treated plates at 20 ul/well and incubated for 24 h at 37° C., 5% CO2, high humidity. On the day of the assay, the cell plates are allowed to cool to room temperature for 30 min prior to the assay.
(§6) Plates containing 1 ul of serially diluted compound, standard and HPE/ZPE are diluted 1/66 in assay buffer (PBS minus Ca^2+, minus Mg^2+ with 0.05% pluronic F127) using a Wellmate. […] The plates are left at room temperature for a further 2 hours before addition of 10 ul of the DiscoveRx PathHunter detection reagent (made up by adding 1 part Galacton Star, 5 parts Emerald II and 19 parts Cell Assay Buffer as per the manufacturer's instructions).
(§7) After reagent addition, plates are covered and incubated at room temperature for 60 minutes. Luminescence signal is read using an Envision. Test compound data are expressed as percentage inhibition defined by HPE and ZPE values for each plate. Percentage inhibition in the presence of test compound is plotted against compound concentration on a log scale to determine an […] from the resultant sigmoid curve.
Target sequence in this assay (P04629 33-796): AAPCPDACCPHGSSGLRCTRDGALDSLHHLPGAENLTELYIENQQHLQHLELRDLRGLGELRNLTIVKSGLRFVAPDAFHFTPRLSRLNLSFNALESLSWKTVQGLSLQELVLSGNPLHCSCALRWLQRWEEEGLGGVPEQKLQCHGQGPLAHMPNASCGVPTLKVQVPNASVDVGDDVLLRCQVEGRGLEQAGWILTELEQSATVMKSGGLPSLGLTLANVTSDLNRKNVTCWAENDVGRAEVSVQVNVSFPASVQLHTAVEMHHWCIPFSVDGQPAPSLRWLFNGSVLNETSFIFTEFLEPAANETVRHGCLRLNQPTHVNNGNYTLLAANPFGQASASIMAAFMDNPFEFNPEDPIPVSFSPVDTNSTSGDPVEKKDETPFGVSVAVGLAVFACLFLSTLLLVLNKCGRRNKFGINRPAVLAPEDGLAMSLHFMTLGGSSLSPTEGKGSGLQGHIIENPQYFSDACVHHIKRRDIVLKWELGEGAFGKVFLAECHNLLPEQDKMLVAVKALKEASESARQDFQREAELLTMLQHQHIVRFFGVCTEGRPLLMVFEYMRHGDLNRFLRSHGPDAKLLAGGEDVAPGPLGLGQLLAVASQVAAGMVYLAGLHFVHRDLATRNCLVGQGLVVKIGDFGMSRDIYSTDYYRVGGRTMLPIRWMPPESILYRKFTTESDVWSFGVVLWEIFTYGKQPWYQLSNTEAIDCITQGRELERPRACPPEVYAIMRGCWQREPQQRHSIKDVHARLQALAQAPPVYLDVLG

TRKB [4] = target: T2, TRKB; assay: cell-based; conditions: TrkB cell potency, TRKB PathHunter cell line
Procedure: as §1, §2, §3, §4, §5, §6, §7

MDR1 = MDR1 (Homo sapiens (Human), UniProt P08183); assay: MDCK-MDR1 assay (in vitro brain penetration); assay type: in vitro ADME; conditions: for Papp B→A / Papp A→B: human; for Papp B→A: MDCK-MDR1, MDCK-MDR1, B to A, read-out: MDCK MDR1 Papp BA; for Papp A→B / MDCK MDR1 Papp AB: MDCK-MDR1, A to B; for Papp A→B: read-out: MDCK MDR1 Papp AB; for MDCK MDR1 Papp BA: MDCK-MDR1, B to A
MDR1, sequence (P08183 whole entry): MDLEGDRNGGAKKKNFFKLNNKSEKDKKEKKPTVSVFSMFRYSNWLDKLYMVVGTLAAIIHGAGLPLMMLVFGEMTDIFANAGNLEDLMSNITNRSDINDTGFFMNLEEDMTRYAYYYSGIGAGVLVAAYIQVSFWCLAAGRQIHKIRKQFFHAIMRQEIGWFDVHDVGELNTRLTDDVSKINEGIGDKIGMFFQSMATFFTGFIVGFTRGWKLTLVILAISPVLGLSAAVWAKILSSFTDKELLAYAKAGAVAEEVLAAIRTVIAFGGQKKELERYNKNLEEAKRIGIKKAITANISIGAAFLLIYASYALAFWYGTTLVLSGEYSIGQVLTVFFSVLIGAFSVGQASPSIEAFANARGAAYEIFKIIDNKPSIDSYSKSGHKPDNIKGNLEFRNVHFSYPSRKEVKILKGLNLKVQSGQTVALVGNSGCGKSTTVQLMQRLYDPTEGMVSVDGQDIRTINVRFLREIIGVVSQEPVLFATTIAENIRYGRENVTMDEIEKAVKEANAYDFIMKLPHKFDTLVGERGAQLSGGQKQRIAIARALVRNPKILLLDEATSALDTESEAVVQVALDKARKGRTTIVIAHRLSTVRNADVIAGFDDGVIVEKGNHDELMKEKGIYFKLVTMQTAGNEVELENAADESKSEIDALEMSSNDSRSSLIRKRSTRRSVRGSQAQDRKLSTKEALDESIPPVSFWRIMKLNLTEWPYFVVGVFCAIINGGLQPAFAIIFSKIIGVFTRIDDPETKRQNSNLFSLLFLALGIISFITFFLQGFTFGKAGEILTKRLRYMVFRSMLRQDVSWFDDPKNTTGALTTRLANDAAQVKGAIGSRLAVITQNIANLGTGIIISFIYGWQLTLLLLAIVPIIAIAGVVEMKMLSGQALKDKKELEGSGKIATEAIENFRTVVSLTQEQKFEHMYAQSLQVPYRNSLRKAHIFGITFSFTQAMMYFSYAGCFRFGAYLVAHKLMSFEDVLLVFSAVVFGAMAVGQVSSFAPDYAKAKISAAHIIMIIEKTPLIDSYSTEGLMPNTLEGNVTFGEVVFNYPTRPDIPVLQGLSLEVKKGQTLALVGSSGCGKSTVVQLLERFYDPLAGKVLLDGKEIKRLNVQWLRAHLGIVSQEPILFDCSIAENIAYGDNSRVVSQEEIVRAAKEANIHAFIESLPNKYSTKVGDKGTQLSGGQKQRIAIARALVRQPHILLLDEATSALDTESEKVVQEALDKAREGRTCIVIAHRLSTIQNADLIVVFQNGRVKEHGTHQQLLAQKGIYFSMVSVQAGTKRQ
Description: MDCK-MDR1: MDCK-MDR1 data were collected according to the method described in “Are MDCK Cells Transfected with the Human MDR1 Gene a Good Model of the Human Intestinal Mucosa?”
http://www.springerlink.com/content/qfhqlqbr4fnp3 khf/fulltext.pdf

SMILES	IC50 (TRKA [1])	IC50 (TRKB [2])	IC50 (TRKA [3])	IC50 (TRKB [4])	Papp B→A (MDR1)	Papp A→B (MDR1)	MDCK MDR1 Papp AB (MDR1)	MDCK MDR1 Papp BA (MDR1)
CC(CO)n1cc(C(=O)c2cncc(NC(=O)Cn3cc(C(F)(F)F)nn3)c2)c2cnc(N)nc21 (single isomer, unassigned) [Example 39, N-(5-{[2-amino-7-(2-hydroxy-1-methylethyl)-7H-pyrrolo[2,3-d]pyrimidin-5-yl]carbonyl}pyridin-3-yl)-2-[4-(trifluoromethyl)-1H-1,2,3-triazol-1-yl]acetamide]	0.024 µM		> 8.66 µM	4.71 µM	< 10 nm/s	< 10 nm/s		
CC(CO)n1cc(C(=O)c2cncc(NC(=O)Cn3cc(C(F)(F)F)nn3)c2)c2cnc(N)nc21 (single isomer, unassigned) [Example 45, N-(5-{[2-amino-7-(2-hydroxy-1-methylethyl)-7H-pyrrolo[2,3-d]pyrimidin-5-yl]carbonyl}pyridin-3-yl)-2-[4-(trifluoromethyl)-1H-1,2,3-triazol-1-yl]acetamide]	0.025 µM		> 8.66 µM	3.79 µM			<10 nm/s	<10 nm/s
CC(C)(C)n1cc(C(=O)c2cncc(NC(=O)Cc3ccc(F)cn3)c2)c2cncnc21 [Example 1, N-{5-[(7-tert-Butyl-7H-pyrrolo[2,3-d]pyrimidin-5-yl)carbonyl]pyridin-3-yl}-2-(5-fluoropyridin-2-yl)acetamide]	0.0037 µM		0.0095 µM	0.0015 µM	140 nm/s	55 nm/s		
CC(C)(C)n1cc(C(=O)c2cncc(NC(=O)Cn3ccc(C4CC4)n3)c2)c2cncnc21 [Example 3, N-{5-[(7-tert-butyl-7H-pyrrolo[2,3-d]pyrimidin-5-yl)carbonyl]pyridin-3-yl}-2-(3-cyclopropyl-1H-pyrazol-1-yl)acetamide]	0.0041 µM		0.0051 µM	0.0018 µM	200 nm/s	87 nm/s		
CC(C)(C)n1cc(C(=O)c2cncc(NC(=O)Cc3ccc(Cl)cn3)c2)c2cncnc21 [Example 6, N-{5-[(7-tert-butyl-7H-pyrrolo[2,3-d]pyrimidin-5-yl)carbonyl]pyridin-3-yl}-2-(5-chloropyridin-2-yl)acetamide]	0.0025 µM		0.002 µM	0.0013 µM	160 nm/s	69 nm/s		
Cc1cc(C(F)(F)F)nn1CC(=O)Nc1cncc(C(=O)c2cn([C@H](C)CO)c3ncncc23)c1 [Example 17, N-[5-({7-[(1R)-2-Hydroxy-1-methylethyl]-7H-pyrrolo[2,3-d]pyrimidin-5-yl}carbonyl)pyridin-3-yl]-2-[5-methyl-3-(trifluoromethyl)-1H-pyrazol-1-yl]acetamide]	0.023 µM		0.103 µM	0.045 µM	130 nm/s	< 10 nm/s		
C[C@H](CO)n1cc(C(=O)c2cncc(NC(=O)Cn3cc(C4CC4)nn3)c2)c2cncnc21 [Example 18, 2-(4-cyclopropyl-1H-1,2,3-triazol-1-yl)-N-[5-({7-[(1R)-2-hydroxy-1-methylethyl]-7H-pyrrolo[2,3-d]pyrimidin-5-yl}carbonyl)pyridin-3-yl]acetamide]	0.128 µM		> 8.66 µM	5.3 µM	< 10 nm/s	< 10 nm/s		
C[C@H](CO)n1cc(C(=O)c2cncc(NC(=O)Cn3cc(C(F)(F)F)nn3)c2)c2cncnc21 [Example 21, N-[5-({7-[(1R)-2-hydroxy-1-methylethyl]-7H-pyrrolo[2,3-d]pyrimidin-5-yl}carbonyl)pyridin-3-yl]-2-[4-(trifluoromethyl)-1H-1,2,3-triazol-1-yl]acetamide]	0.071 µM		5.74 µM	1.77 µM	13 nm/s	< 10 nm/s		
C[C@H](CO)n1cc(C(=O)c2cncc(NC(=O)Cn3ccc(C(F)(F)F)n3)c2)c2cncnc21 [Example 22, N-[5-({7-[(1R)-2-hydroxy-1-methylethyl]-7H-pyrrolo[2,3-d]pyrimidin-5-yl}carbonyl)pyridin-3-yl]-2-[3-(trifluoromethyl)-1H-pyrazol-1-yl]acetamide]	0.025 µM		0.596 µM	0.19 µM	69 nm/s	< 10 nm/s		
CC(C)(CO)n1cc(C(=O)c2cncc(NC(=O)Cn3cc(C4CC4)nn3)c2)c2cncnc21 [Example 31, 2-(4-cyclopropyl-1H-1,2,3-triazol-1-yl)-N-(5-{[7-(2-hydroxy-1,1-dimethylethyl)-7H-pyrrolo[2,3-d]pyrimidin-5-yl]carbonyl}pyridin-3-yl)acetamide]	0.018 µM		0.401 µM	0.198 µM	26 nm/s	< 10 nm/s		
CC(C)(CO)n1cc(C(=O)c2cncc(NC(=O)Cn3cc(C(F)(F)F)nn3)c2)c2cnc(N)nc21 [Example 54, N-(5-{[2-Amino-7-(2-hydroxy-1,1-dimethylethyl)-7H-pyrrolo[2,3-d]pyrimidin-5-yl]carbonyl}pyridin-3-yl)-2-[4-(trifluoromethyl)-1H-1,2,3-triazol-1-yl]acetamide]	0.0067 µM		0.368 µM	0.174 µM	13 nm/s	< 10 nm/s		

The remaining lines, values ahead:

IC50 (TRKA [1])	IC50 (TRKB [2])	IC50 (TRKA [3])	IC50 (TRKB [4])	Papp B→A (MDR1)	Papp A→B (MDR1)	MDCK MDR1 Papp AB (MDR1)	MDCK MDR1 Papp BA (MDR1)	SMILES
0.0089 µM	0.223 µM	0.103 µM	0.037 µM	53 nm/s	< 10 nm/s			CC(CO)n1cc(C(=O)c2cncc(NC(=O)Cc3ccc(Cl)cn3)c2)c2cnc(N)nc21 (single isomer, unassigned) [Example 35, N-(5-{[2-amino-7-(2-hydroxy-1-methylethyl)-7H-pyrrolo[2,3-d]pyrimidin-5-yl]carbonyl}pyridin-3-yl)-2-(5-chloropyridin-2-yl)acetamide]
0.0072 µM		1.06 µM	0.589 µM	21 nm/s	< 10 nm/s			CC(CO)n1cc(C(=O)c2cncc(NC(=O)Cn3ccc(C(F)(F)F)n3)c2)c2cnc(N)nc21 (single isomer, unassigned) [Example 38, N-(5-{[2-amino-7-(2-hydroxy-1-methylethyl)-7H-pyrrolo[2,3-d]pyrimidin-5-yl]carbonyl}pyridin-3-yl)-2-[3-(trifluoromethyl)-1H-pyrazol-1-yl]acetamide]
0.067 µM		2.58 µM	0.506 µM	24 nm/s	< 10 nm/s			CC(CO)n1cc(C(=O)c2cncc(NC(=O)Cc3ccc(F)cn3)c2)c2cnc(N)nc21 (single isomer, unassigned) [Example 40, N-(5-{[2-amino-7-(2-hydroxy-1-methylethyl)-7H-pyrrolo[2,3-d]pyrimidin-5-yl]carbonyl}pyridin-3-yl)-2-(5-fluoropyridin-2-yl)acetamide]
0.0076 µM		0.203 µM	0.07 µM			<10 nm/s	63 nm/s	CC(CO)n1cc(C(=O)c2cncc(NC(=O)Cc3ccc(Cl)cn3)c2)c2cnc(N)nc21 (single isomer, unassigned) [Example 41, N-(5-{[2-amino-7-(2-hydroxy-1-methylethyl)-7H-pyrrolo[2,3-d]pyrimidin-5-yl]carbonyl}pyridin-3-yl)-2-(5-chloropyridin-2-yl)acetamide]
0.012 µM		0.996 µM	0.554 µM			<10 nm/s	16 nm/s	CC(CO)n1cc(C(=O)c2cncc(NC(=O)Cn3ccc(C(F)(F)F)n3)c2)c2cnc(N)nc21 (single isomer, unassigned) [Example 44, N-(5-{[2-amino-7-(2-hydroxy-1-methylethyl)-7H-pyrrolo[2,3-d]pyrimidin-5-yl]carbonyl}pyridin-3-yl)-2-[3-(trifluoromethyl)-1H-pyrazol-1-yl]acetamide]
0.026 µM		0.093 µM	0.052 µM	310 nm/s	< 10 nm/s			C[C@H](CO)n1cc(C(=O)c2cncc(NC(=O)Cc3ccc(Cl)cn3)c2)c2cncnc21 [Example 23, 2-(5-chloropyridin-2-yl)-N-[5-({7-[(1R)-2-hydroxy-1-methylethyl]-7H-pyrrolo[2,3-d]pyrimidin-5-yl}carbonyl)pyridin-3-yl]acetamide]
